Each structure is given as a SMILES string.

The values below come from US11542266B1, “Substituted piperidines as BTK inhibitors” (HAISCO PHARMACEUTICALS PTE. LTD., priority 2019, dated 2023).

One data set relates to SU-DHL-6 cells. In words: Inhibition of cell proliferation, SU-DHL-6 cells (Cell Viability Assay, 72 h). It is filed as cell-based. The note with it: Homo sapiens. As for the experimental part: SU-DHL-4, Mino, and SU-DHL-6 cells, in the culture medium of RPMI1640+10% FBS, were cultured in an incubator at 37° C. under 5% CO2. Cells were plated in a 96-well plate. Specifically, SU-DHL-4 cells were at 20000/well, Mino and SU-DHL-6 cells were at 5000/well, with 90 μL/well. 10 μL of the compounds at different concentrations were added to each well. There were 3 replicate wells for each concentration, and the last column, added with DMSO, was used as a vehicle control group. The cultures were continued for 72 hours at 37° C. under 5% CO2. After 72 hours, 100 μL of detection reagent (Cell Viability Assay, Promega, G7573) was added to each well, and the cultures were uniformly mixed for 2 minutes, and incubated at room temperature for 10 minutes. The fluorescence signal value was measured with a microplate reader (PHERAstar FSX). The IC50 value of the compound on cell proliferation inhibition was calculated using Origin 9.2 software, and the inhibition rate at the highest concentration of the compound (Max inhi. %) was calculated according to formula (1). Max inhi. %=(1-T72 administration/T72 vehicle)×100 Formula (1).

The next data set deals with OCI-LY10 cells. In words: Inhibition of cell proliferation, OCI-LY10 cells (Cell Viability Assay, 72 h). The format is cell-based. The note with it: Homo sapiens. As for the experimental part:
(§1) OCI-LY10 and TMD-8 cells, in the culture medium of RPMI1640+10% FBS, were cultured in an incubator at 37° C. under 5% CO2. Cells were plated in a 96-well plate. Specifically, OCI-LY10 cells were at 10000/well, and TMD-8 cells were at 8000/well, with 90 μL/well. These cells were cultured at 37° C. under 5% CO2 overnight. On the next day, 10 μL of the compounds at different concentrations were added to each well. There were 3 replicate wells for each concentration, and the last column, added with DMSO, was used as a vehicle control group. The cultures were continued for 72 hours at 37° C. under 5% CO2. After 72 hours, 50 μL of detection reagent (Cell Viability Assay, Promega, G7573) was added to each well, and the cultures were uniformly mixed for 2 minutes, and incubated at room temperature for 10 minutes. The fluorescence signal value was measured with an Envision2104 plate reader (PerkinElmer). The inhibition rate was calculated using formula (2), wherein RLUcompound was the readout of the drug treated group, RLUcontrol was the average value of the vehicle control group, and RLUblank was the average value of the cell-free wells. The IC50 value was calculated using GraphPad Prism software. IR (%)=(1−(RLUcompound-RLUblank)/(RLUcontrol-RLUblank))*100% formula (2)

The test system of a further data set is Mino cells. In words: Inhibition of cell proliferation, Mino cells (Cell Viability Assay, 72 h). The format is cell-based, human. The note with it: Homo sapiens. An outline of the steps:
(§2)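 RPMI1640 + 10% FBS cultures seeded at 20000/well (SU-DHL-4) or 5000/well (Mino, SU-DHL-6), exposed to compound dilutions in triplicate for 72 h at 37 °C, 5% CO2, DMSO vehicle control. Viability read by luminescent reagent; IC50 from dose-response and Max inhi. % = (1 − T72 treated/T72 vehicle)×100 at top concentration.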

The subject of a further data set is TMD-8 cells. Put plainly: Inhibition of cell proliferation, TMD-8 cells (Cell Viability Assay, 72 h). It is filed as cell-based. To be noted: Homo sapiens, TMD8. As for the experimental part: as §1
Data set [1] is described as follows: Pharmacokinetic experiment in rats (i.g. vehicle 0.5% MC). The format is in vivo. The note with it: Sprague-Dawley (SD), rat, plasma, po, male SD rats; for bioavailability: i.g. 20 mg/kg (0.5% MC) vs i.v. 5 mg/kg; for AUC(0-t): i.g. 20 mg/kg, vehicle 0.5% MC, read-out: AUC0-t. As for the experimental part: (§3) Objective: In this experiment, a single dose of each test compound was administered to SD rats intravenously and intragastrically, the concentrations of the test compound in plasma of rats were measured, and the pharmacokinetic characteristics and bioavailability of the test compound in rats were evaluated.
Experimental animals: Male SD rats, 200-250 g, 6-8 weeks old, 6 rats/test compound. The experimental animals were purchased from CHENGDU DOSSY EXPERIMENTAL ANIMALS CO., LTD.
(§4) Experimental method: On the day of the experiment, 6 SD rats were randomly grouped according to their body weight. The animals were fasted with water available for 12 to 14 hours one day before the administration of a test compound, and were fed 4 hours after the administration.
Sampling: Before and after the administration, 0.1 ml of blood was taken from the orbit of the rats under isoflurane anesthesia, and placed in an EDTAK2 centrifuge tube. Centrifugation was carried out at 5000 rpm at 4° C. for 10 min and the plasma was collected.
Time points for plasma collection in G1 group: 0, 5 m, 15 m, 30 m, 1 h, 2 h, 4 h, 6 h, 8 h, and 24 h.
Time points for plasma collection in G2 group: 0, 15 m, 30 m, 1 h, 2 h, 4 h, 6 h, 8 h, and 24 h.
(§5) Before analysis and detection, all samples were stored at −80° C. The samples were analyzed quantitatively by LC-MS/MS.

A further data set concerns SU-DHL-4 cells. In words: Inhibition of cell proliferation, SU-DHL-4 cells (Cell Viability Assay, 72 h). It is filed as cell-based, human. The note with it: Homo sapiens. An outline of the steps: as §2
For a further data set, the target named is BTK protein (Mus musculus (Mouse), UniProt P35991). Put plainly: Detection of BTK protein degradation in spleen of mice. It is filed as in vivo. The note with it: po, 72 h, female ICR mice, 3 consecutive days of intragastric administration, read-out: DD50 value of compounds on BTK protein degradation in spleen of mice. As for the experimental part: Female ICR mice, 6-8 weeks old, were purchased from BEIJING VITAL RIVER LABORATORY ANIMAL TECHNOLOGY CO., LTD, and the experiment was started after 3 days of adaptation. After 3 consecutive days of intragastric administration of different doses of the compound, the spleen of mice was taken, the spleen cells were collected, and RIPA lysis buffer (Beyotime, Cat. P0013B) was added. The cells were lysed on ice for 15 minutes, and centrifuged at 12000 rpm at 4° C. for 10 minutes. The protein sample of the supernatant was collected, and the protein was quantified by using the BCA kit (Beyotime, Cat. P0009), and then the protein was diluted to 0.25 mg/mL. The expressions of BTK (CST, Cat. 8547S) and the internal reference β-actin (CST, Cat. 3700S) were detected using a fully automated western blot quantitative analyzer (Proteinsimple). The expression level of BTK relative to the internal reference was calculated using Compass software, and the DD50 value was calculated using Origen9.2 software according to formula (4). Specifically, the BTKadministration denoted the expression level of BTK in administration groups at different doses, and the BTKvehicle denoted the expression level of BTK in the vehicle control group. BTK %=BTKadministration/BTKvehicle×100 formula (4)
Chain of BTK protein (P35991 whole entry): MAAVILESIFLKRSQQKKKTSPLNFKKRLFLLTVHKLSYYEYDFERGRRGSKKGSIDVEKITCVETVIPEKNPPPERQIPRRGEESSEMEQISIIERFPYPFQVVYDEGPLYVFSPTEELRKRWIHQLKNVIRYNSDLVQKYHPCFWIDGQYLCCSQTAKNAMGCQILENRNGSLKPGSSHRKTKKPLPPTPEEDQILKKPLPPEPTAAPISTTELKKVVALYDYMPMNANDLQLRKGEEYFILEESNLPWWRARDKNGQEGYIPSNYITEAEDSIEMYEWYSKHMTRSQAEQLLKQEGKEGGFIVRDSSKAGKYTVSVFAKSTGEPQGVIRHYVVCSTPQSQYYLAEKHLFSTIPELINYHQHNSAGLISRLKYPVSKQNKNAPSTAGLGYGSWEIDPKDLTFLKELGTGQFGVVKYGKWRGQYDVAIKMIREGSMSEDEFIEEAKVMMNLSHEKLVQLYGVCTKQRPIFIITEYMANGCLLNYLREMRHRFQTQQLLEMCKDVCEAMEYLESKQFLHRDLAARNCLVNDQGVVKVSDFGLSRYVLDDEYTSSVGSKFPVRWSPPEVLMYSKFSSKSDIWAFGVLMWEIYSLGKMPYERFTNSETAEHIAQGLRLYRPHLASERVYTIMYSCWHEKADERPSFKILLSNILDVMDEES

A short description of data set [2]: Pharmacokinetic experiment in rats (i.g. vehicle DMSO/Solutol/PEG-400/SBE-β-CD). The format is in vivo. To be noted: Sprague-Dawley (SD), rat, plasma, po, male SD rats; for bioavailability: i.g. 20 mg/kg (DMSO/Solutol/PEG-400/SBE-β-CD) vs i.v. 5 mg/kg. As for the experimental part:
as §3
Experimental animals: Male SD rats, 200-250 g, 6-8 weeks old, 6 rats/compound. The experimental animals were purchased from CHENGDU DOSSY EXPERIMENTAL ANIMALS CO., LTD.
as §4
Sampling: Before and after the administration, 0.1 mL of blood was taken from the orbit of the rats under isoflurane anesthesia, and placed in an EDTAK2 centrifuge tube. Centrifugation was carried out at 5000 rpm at 4° C. for 10 min and the plasma was collected.
Time points for plasma collection in G1 group: 0, 5 min, 15 min, 30 min, 1 h, 2 h, 4 h, 6 h, 8 h, and 24 h.
Time points for plasma collection in G2 group: 0, 15 min, 30 min, 1 h, 2 h, 4 h, 6 h, 8 h, and 24 h.
as §5

As for `Nc1ncnc2c1c(-c1ccc(Oc3ccccc3)cc1)nn2C1CCN(C2CCN(C3CN(c4ccc5c(c4)C(=O)N(C4CCC(=O)NC4=O)C5=O)C3)CC2)CC1` (stereo not drawn) [Compound 8, 5-(3-(4-(4-amino-3-(4-phenoxyphenyl)-1H-pyrazolo[3,4-d]pyrimidin-1-yl)-[1,4′-bipiperidin]-1′-yl)azetidin-1-yl)-2-(2,6-dioxopiperidin-3-yl)isoindoline-1,3-dione tritrifluoroacetate], the IC50 – broadly, the point on the concentration scale where inhibition reaches its midpoint – with SU-DHL-6 cells is 399 nM; with OCI-LY10 cells, 3 nM; in the data set on Mino cells, 309 nM; in the data set with TMD-8 cells, 22 nM; with SU-DHL-4 cells, 255 nM. Moreover, the bioavailability (commonly the share of a dose that reaches the circulation, judged against a reference dose that is usually intravenous) in data set [1] is 11.8 ± 4.4%. Also, the AUC(0-t) in data set [1] worked out at 634 ± 238 ng·h/mL.
As for `Nc1ncnc2c1c(-c1ccc(Oc3ccccc3)cc1)nn2C1CCN(C2CCN(C3CN(c4ccc5c(c4)C(=O)N(C4CCC(=O)NC4=O)C5=O)C3)CC2)CC1` (stereo not drawn) [Compound 8-1, 5-(3-(4-(4-amino-3-(4-phenoxyphenyl)-1H-pyrazolo[3,4-d]pyrimidin-1-yl)-[1,4′-bipiperidin]-1′-yl)azetidin-1-yl)-2-(2,6-dioxopiperidin-3-yl)isoindoline-1,3-dione], the ED50 at BTK protein is 3.8 mg/kg.
Take `Nc1ncnc2c1c(-c1ccc(Oc3ccccc3)cc1)nn2C1CCN(C2CN(C3CN(c4ccc5c(c4)C(=O)N([C@@H]4CCC(=O)NC4=O)C5=O)C3)C2)CC1` [Compound 17-a, 5-[3-[3-[4-[4-amino-3-(4-phenoxyphenyl)pyrazolo[3,4-d]pyrimidin-1-yl]-1-piperidyl]azetidin-1-yl]azetidin-1-yl]-2-[(3R)-2,6-dioxo-3-piperidyl]isoindoline-1,3-dione]: the IC50 with SU-DHL-6 cells was 524 nM; with Mino cells it was 8 nM; in the data set with SU-DHL-4 cells it was 481 nM. In addition, the ED50 on BTK protein amounted to 19.8 mg/kg.
The corresponding values for `Nc1ncnc2c1c(-c1ccc(Oc3ccccc3)cc1)nn2C1CCN(C2CN(C3CN(c4ccc5c(c4)C(=O)N([C@H]4CCC(=O)NC4=O)C5=O)C3)C2)CC1` [Compound 17-b, 5-[3-[3-[4-[4-amino-3-(4-phenoxyphenyl)pyrazolo[3,4-d]pyrimidin-1-yl]-1-piperidyl]azetidin-1-yl]azetidin-1-yl]-2-[(3S)-2,6-dioxo-3-piperidyl]isoindoline-1,3-dione] are 662 nM, 7.2 nM, 460 nM and 2.2 mg/kg.
Consider `Nc1ncnc2c1c(-c1ccc(Oc3ccccc3)cc1)nn2C1CCN(C2CCN(C3CN(c4ccc5c(c4)C(=O)N(C4CCC(=O)NC4=O)C5=O)C3)CC2F)CC1` (stereo not drawn) [Compound 18-1, cis-5-(3-(4-(4-amino-3-(4-phenoxyphenyl)-1H-pyrazolo[3,4-d]pyrimidin-1-yl)-3′-fluoro-[1,4′-bipiperidin]-1′-yl)azetidin-1-yl)-2-(2,6-dioxopiperidin-3-yl)isoindoline-1,3-dione], for which the IC50 in the data set on SU-DHL-6 cells stood at 29 nM; with OCI-LY10 cells, 4 nM; with Mino cells, 18 nM; in the data set with TMD-8 cells it was 8 nM; in the data set with SU-DHL-4 cells, 20 nM. Moreover, the ED50 at BTK protein turned out to be 1.9 mg/kg. Besides, the AUC(0-t) in data set [1] was 218 ± 68 ng·h/mL.
`Nc1ncnc2c1c(-c1ccc(Oc3ccccc3)cc1)nn2C1CCN(C2CN(C3CN(c4ccc5c(c4)C(=O)N(C4CCC(=O)NC4=O)C5=O)C3)C2)CC1F` (stereo not drawn) [Compound 19-1, trans-5-(3-(4-(4-amino-3-(4-phenoxyphenyl)-1H-pyrazolo[3,4-d]pyrimidin-1-yl)-3-fluoropiperidin-1-yl)-[1,3′-biazetidin]-1′-yl)-2-(2,6-dioxopiperidin-3-yl)isoindoline-1,3-dione]: the IC50 with OCI-LY10 cells came out at 23 nM; in the data set on TMD-8 cells, 14 nM; with SU-DHL-4 cells it was 394 nM. For the same compound, the AUC(0-t) in data set [1] was 1260 ± 117 ng·h/mL.
`Nc1ncnc2c1c(-c1ccc(Oc3ccccc3)cc1)nn2[C@@H]1CCN(C2CCN(C3CN(c4ccc5c(c4)C(=O)N(C4CCC(=O)NC4=O)C5=O)C3)CC2)C[C@H]1F` (stereo partly drawn) [Compound 40, 5-(3-((3R,4R)-4-(4-amino-3-(4-phenoxyphenyl)-1H-pyrazolo[3,4-d]pyrimidin-1-yl)-3-fluoro-[1,4′-bipiperidin]-1′-yl)azetidin-1-yl)-2-(2,6-dioxopiperidin-3-yl)isoindoline-1,3-dione] came in with a bioavailability in data set [2] of 17.4 ± 4%. The AUC(0-t) in data set [2] (i.g. 20 mg/kg, vehicle 5% DMSO + 5% Solutol + 30% PEG-400 + 60% (20%SBE-β-CD)) is 5420 ± 1260 ng·h/mL. Further, the IC50 worked out at 54 nM with SU-DHL-6 cells; 3 nM in the data set with OCI-LY10 cells; 7.3 nM in the data set on Mino cells; 12 nM with TMD-8 cells; 74 nM in the data set with SU-DHL-4 cells. In addition, the ED50 on BTK protein was found to be 2.1 mg/kg.
Regarding `Nc1ncnc2c1c(-c1ccc(Oc3ccccc3)cc1)nn2[C@@H]1CCCN(C(=O)c2cn(CCOCCOCCOCCNc3cccc4c3C(=O)N(C3CCC(=O)NC3=O)C4=O)nn2)C1` (stereo partly drawn) [Compound P13I, reference compound], the bioavailability in data set [2] and in data set [1] was 0% throughout. Moreover, the IC50 with SU-DHL-6 cells worked out at 1640 nM; with OCI-LY10 cells, 29 nM; with Mino cells, 844 nM; with TMD-8 cells it was 104 nM; in the data set on SU-DHL-4 cells, 1180 nM.
